The NIST ThermoML archive (doi:10.1016/j.jct.2015.06.002)
Numbers after ± are expanded uncertainties.

Assays:
[1] = 298.15 K; Liquid; Gas chromatography
[2] = Boiling temperature at pressure P; conditions: Liquid, Gas chromatography

C/C=C/C=C/CCCCCCCO [(E,E)-8,10-dodecadien-1-ol]
vapor or sublimation pressure [1]: 8.3e-05 ± 2.5e-05 kPa
Boiling temperature at pressure P ([2]; 0.267 kPa): 116 ± 20 °C
Boiling temperature at pressure P ([2]; 101.33 kPa): 276.0 ± 20 °C
